Measurements reported in article PMC5957549 (Nature, 2017).

Tests used:
AdenosineA2A = AdenosineA2A (Homo sapiens, UniProt P29274); assay: Radioligand displacement; format: binding; settings: read-out: Inhib. (%)
Adenosine A1 = Adenosine A1 (Homo sapiens, UniProt P30542); assay: Radioligand displacement; format: binding; settings: read-out: Inhib. (%)
Adrenergic α2A = Adrenergic α2A (Homo sapiens, UniProt P08913); assay: Radioligand displacement; format: binding; settings: read-out: Inhib. (%)
Adrenergic α1A = assay: Radioligand displacement; format: binding; settings: 10 μM fenethylline, average of two replicates
Adrenergic α1B = assay: Radioligand displacement; format: binding; settings: 10 μM fenethylline, average of two replicates
Adrenergic β2 = Adrenergic β2 (Homo sapiens, UniProt P07550); assay: Radioligand displacement; format: binding; settings: read-out: Inhib. (%)
Chain of Adrenergic β2 (P07550 whole entry): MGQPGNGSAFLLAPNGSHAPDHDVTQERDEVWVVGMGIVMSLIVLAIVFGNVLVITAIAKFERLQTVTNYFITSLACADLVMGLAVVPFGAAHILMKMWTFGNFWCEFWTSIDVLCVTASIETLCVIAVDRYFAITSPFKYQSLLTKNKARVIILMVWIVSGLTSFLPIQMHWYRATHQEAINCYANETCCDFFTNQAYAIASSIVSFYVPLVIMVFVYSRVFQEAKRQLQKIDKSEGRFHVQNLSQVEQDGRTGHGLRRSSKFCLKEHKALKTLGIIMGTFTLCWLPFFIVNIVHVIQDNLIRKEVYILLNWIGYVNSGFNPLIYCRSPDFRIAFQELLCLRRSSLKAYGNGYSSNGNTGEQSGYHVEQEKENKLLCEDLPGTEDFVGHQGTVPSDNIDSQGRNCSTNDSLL

Adrenergic β1 = Adrenergic β1 (Homo sapiens, UniProt P08588); assay: Radioligand displacement; format: binding; settings: read-out: Inhib. (%)
Chain of Adrenergic β1 (P08588 whole entry): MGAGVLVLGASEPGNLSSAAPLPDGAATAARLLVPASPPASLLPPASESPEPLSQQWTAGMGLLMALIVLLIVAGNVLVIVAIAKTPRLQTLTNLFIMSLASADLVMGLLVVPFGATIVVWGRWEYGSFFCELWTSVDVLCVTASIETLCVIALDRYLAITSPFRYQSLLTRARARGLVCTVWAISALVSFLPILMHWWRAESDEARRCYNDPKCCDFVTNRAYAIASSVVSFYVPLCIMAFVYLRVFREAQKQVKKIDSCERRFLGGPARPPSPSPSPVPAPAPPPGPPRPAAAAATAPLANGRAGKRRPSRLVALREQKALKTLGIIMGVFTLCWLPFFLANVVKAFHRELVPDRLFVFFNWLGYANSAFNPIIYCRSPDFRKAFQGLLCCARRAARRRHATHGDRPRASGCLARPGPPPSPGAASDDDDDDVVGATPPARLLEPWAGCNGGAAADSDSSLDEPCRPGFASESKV

L-Type Ca Channel = assay: Radioligand displacement; format: binding; settings: 10 μM fenethylline, average of two replicates
Cannabinoid CB1 = Cannabinoid CB1 (Homo sapiens, UniProt P21554); assay: Radioligand displacement; format: binding; settings: read-out: Inhib. (%)
Chain of Cannabinoid CB1 (P21554 whole entry): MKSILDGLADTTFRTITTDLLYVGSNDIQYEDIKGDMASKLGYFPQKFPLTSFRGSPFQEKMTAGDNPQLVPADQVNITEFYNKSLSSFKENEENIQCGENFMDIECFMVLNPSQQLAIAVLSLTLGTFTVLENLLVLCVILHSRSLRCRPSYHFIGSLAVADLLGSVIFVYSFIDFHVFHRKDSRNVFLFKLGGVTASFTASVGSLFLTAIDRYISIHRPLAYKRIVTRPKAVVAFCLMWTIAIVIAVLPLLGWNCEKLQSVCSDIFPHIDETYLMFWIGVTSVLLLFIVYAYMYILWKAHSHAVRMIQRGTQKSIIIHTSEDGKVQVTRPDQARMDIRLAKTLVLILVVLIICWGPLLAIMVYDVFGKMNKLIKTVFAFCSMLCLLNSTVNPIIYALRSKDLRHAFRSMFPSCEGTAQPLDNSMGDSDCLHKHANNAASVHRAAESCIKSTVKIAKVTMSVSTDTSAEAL

Dopamine D2S = Dopamine D2S (Homo sapiens, UniProt P14416); assay: Radioligand displacement; format: binding; settings: read-out: Inhib. (%)
GABAA – Site 1 = assay: Radioligand displacement; format: binding; settings: 10 μM fenethylline, average of two replicates
GABAA – Site 2 = assay: Radioligand displacement; format: binding; settings: 10 μM fenethylline, average of two replicates
Glutamate – NMDA = assay: Radioligand displacement; format: binding; settings: 10 μM fenethylline, average of two replicates
Muscarinic M2 = Muscarinic M2 (Homo sapiens, UniProt P08172); assay: Radioligand displacement; format: binding; settings: read-out: Inhib. (%)
Muscarinic M3 = Muscarinic M3 (Homo sapiens, UniProt P20309); assay: Radioligand displacement; format: binding; settings: read-out: Inhib. (%)
Chain of Muscarinic M3 (P20309 whole entry): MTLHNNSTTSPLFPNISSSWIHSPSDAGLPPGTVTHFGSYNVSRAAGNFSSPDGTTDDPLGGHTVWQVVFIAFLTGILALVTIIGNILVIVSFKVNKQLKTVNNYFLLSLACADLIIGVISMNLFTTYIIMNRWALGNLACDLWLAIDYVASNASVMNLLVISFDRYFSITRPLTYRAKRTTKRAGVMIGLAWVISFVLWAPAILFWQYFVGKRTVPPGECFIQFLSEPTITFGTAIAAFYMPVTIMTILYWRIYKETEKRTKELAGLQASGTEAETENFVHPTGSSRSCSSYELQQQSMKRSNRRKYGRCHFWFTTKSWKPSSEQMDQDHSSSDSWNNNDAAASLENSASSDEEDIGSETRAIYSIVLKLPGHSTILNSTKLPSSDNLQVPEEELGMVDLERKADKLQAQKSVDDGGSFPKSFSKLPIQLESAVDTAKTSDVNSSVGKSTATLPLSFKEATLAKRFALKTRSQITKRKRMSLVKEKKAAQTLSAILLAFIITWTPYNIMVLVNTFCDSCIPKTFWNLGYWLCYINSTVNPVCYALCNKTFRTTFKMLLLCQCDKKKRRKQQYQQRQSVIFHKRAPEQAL

Nicotinic Ach = assay: Radioligand displacement; format: binding; settings: 10 μM fenethylline, average of two replicates
Nicotinic Ach α1 = Nicotinic Ach α1 (Homo sapiens, UniProt P02708+P07510+Q07001); assay: Radioligand displacement; format: binding; settings: read-out: Inhib. (%)
Chain of Nicotinic Ach α1 (P02708 21-457): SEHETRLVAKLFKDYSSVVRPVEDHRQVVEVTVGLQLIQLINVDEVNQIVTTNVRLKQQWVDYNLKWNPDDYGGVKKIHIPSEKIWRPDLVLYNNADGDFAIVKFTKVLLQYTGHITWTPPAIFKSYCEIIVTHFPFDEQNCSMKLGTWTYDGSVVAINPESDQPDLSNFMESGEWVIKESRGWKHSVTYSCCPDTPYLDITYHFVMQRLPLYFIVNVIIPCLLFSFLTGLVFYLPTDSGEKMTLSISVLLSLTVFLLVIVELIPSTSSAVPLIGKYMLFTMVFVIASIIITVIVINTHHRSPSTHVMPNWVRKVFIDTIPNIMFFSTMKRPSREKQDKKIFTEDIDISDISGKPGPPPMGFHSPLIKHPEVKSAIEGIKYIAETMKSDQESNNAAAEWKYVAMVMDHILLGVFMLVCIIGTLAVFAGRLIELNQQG
Chain of Nicotinic Ach α1 (P11230 24-501 partner): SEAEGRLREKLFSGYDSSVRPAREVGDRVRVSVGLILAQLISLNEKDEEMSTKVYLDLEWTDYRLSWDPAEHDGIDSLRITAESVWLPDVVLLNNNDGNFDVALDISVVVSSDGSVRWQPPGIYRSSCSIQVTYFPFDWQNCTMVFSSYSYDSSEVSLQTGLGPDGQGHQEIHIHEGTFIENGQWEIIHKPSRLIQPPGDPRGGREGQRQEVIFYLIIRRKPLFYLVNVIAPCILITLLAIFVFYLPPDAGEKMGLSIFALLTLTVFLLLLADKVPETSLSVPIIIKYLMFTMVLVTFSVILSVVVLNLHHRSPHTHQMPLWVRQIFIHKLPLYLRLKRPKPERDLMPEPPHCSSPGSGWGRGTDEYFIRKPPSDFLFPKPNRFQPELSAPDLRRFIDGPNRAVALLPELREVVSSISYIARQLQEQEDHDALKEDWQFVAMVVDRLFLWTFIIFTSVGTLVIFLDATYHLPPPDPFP
Chain of Nicotinic Ach α1 (Q07001 22-517): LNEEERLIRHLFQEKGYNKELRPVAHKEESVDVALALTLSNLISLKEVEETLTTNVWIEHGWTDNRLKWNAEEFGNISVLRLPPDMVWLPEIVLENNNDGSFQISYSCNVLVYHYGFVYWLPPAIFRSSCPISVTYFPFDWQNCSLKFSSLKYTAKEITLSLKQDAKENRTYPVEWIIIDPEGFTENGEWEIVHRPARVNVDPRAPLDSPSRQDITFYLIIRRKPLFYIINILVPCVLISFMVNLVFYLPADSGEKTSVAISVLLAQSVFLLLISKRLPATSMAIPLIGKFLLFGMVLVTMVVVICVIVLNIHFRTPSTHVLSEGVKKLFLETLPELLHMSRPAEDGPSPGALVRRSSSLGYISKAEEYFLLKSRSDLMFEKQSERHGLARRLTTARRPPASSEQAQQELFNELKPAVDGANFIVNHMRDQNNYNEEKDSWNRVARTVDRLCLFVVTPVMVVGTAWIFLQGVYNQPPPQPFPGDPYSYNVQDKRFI
Chain of Nicotinic Ach α1 (P07510 23-517): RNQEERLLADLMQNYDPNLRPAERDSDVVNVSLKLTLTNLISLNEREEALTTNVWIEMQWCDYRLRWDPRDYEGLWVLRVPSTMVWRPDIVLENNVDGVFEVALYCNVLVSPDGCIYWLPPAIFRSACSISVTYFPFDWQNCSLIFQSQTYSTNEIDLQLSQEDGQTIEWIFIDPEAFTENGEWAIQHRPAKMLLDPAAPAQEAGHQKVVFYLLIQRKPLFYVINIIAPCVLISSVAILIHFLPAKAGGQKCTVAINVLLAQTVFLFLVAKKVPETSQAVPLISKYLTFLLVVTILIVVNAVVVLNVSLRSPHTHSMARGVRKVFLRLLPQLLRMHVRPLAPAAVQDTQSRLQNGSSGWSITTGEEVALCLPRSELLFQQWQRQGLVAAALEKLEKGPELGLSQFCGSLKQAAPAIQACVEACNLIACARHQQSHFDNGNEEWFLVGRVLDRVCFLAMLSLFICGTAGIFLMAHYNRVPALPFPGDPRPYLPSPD

Phorbol Ester = assay: Radioligand displacement; format: binding; settings: 10 μM fenethylline, average of two replicates
Prostanoid EP4 = Prostanoid EP4 (Homo sapiens, UniProt P35408); assay: Radioligand displacement; format: binding; settings: read-out: Inhib. (%)
Chain of Prostanoid EP4 (P35408 whole entry): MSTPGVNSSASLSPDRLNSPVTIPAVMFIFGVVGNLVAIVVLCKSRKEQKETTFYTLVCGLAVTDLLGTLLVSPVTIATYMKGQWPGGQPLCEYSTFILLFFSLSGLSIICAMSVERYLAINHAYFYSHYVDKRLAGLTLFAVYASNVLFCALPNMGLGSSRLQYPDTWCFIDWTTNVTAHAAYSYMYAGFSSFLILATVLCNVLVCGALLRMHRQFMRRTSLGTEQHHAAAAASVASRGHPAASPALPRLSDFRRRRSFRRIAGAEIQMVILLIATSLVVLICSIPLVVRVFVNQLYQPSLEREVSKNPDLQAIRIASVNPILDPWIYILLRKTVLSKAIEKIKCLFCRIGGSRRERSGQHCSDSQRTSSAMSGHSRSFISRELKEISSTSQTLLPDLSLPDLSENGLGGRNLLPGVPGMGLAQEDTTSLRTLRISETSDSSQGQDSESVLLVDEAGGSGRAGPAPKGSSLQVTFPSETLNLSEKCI

Rolipram = assay: Radioligand displacement; format: binding; settings: 10 μM fenethylline, average of two replicates
Sigma σ1 = Sigma σ1 (Homo sapiens, UniProt Q99720); assay: Radioligand displacement; format: binding; settings: read-out: Inhib. (%)
Norepi. Transporter = Norepi. Transporter (Homo sapiens, UniProt P23975); assay: Radioligand displacement; format: binding; settings: read-out: Inhib. (%)
Chain of Norepi. Transporter (P23975 whole entry): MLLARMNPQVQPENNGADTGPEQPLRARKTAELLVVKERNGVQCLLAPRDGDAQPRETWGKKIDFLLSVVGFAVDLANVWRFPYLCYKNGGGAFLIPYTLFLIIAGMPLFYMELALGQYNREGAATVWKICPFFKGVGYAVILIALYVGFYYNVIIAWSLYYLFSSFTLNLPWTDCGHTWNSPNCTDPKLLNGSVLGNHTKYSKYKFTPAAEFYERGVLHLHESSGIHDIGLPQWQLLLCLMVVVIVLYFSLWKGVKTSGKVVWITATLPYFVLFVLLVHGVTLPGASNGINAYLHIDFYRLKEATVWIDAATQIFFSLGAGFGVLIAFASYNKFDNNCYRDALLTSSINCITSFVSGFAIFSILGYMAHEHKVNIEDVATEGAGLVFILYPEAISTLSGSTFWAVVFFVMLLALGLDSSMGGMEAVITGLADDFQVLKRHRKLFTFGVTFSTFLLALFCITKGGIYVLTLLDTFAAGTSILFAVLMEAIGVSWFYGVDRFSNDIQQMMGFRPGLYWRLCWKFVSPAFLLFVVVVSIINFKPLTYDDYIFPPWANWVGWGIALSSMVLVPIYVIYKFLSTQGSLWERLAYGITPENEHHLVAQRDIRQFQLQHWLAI

[1] = format: in vivo, Swiss Webster mice; settings: fenethylline 50 mg/kg vs amphetamine 5 mg/kg
Swiss Webster mice [2] = assay: Open field hyperlocomotor activity assay; format: in vivo
Swiss Webster mice [3] = assay: Elevated plus maze; format: in vivo; settings: EPM; fenethylline 20 mg/kg
Swiss Webster mice [4] = assay: Conditioned place preference; format: in vivo; settings: training with fenethylline 20 mg/kg
suite of 31 CNS targets = assay: Binding across a suite of 31 CNS targets; settings: 10 μM

Q: Which results are given for `CC(Cc1ccccc1)NCCn1cnc2c1c(=O)n(C)c(=O)n2C` (stereo not shown) [fenethylline, Fenethylline]?
A: inhibition at 10 µM (AdenosineA2A): -5%; inhibition at 10 µM (Adenosine A1): 0%; inhibition at 10 µM (Adrenergic α2A): 16%; Inhib. (%) (Adrenergic α1A): 27%; Inhib. (%) (Adrenergic α1B): 16%; inhibition at 10 µM (Adrenergic β2): 3%; inhibition at 10 µM (Adrenergic β1): 9%; Inhib. (%) (L-Type Ca Channel): 6%; inhibition at 10 µM (Cannabinoid CB1): 16%; inhibition at 10 µM (Dopamine D2S): 1%; Inhib. (%) (GABAA – Site 1): 0%; Inhib. (%) (GABAA – Site 2): 5%; Inhib. (%) (Glutamate – NMDA): 10%; inhibition at 10 µM (Muscarinic M2): -6%; inhibition at 10 µM (Muscarinic M3): 2%; Inhib. (%) (Nicotinic Ach): 2%; inhibition at 10 µM (Nicotinic Ach α1): 9%; Inhib. (%) (Phorbol Ester): 9%; inhibition at 10 µM (Prostanoid EP4): 3%; Inhib. (%) (Rolipram): 9%; inhibition at 10 µM (Sigma σ1): 7%; inhibition at 10 µM (Norepi. Transporter): 10%; penetration of liberated amphetamine into brain tissue [1]: lags behind that of directly administered amphetamine; onset of stimulant (hyperlocomotor) activity (Swiss Webster mice [2]; fenethylline 20 mg/kg vs amphetamine 2 mg/kg): more rapid than that of amphetamine alone; locomotor activity after drug in control animals (Swiss Webster mice [2]; open field, control (KLH) animals): clear dose-dependent increase; time spent in open arms after drug in control animals (Swiss Webster mice [3]): reduced the time; induction of conditioned place preference (Swiss Webster mice [4]): induce CPP; binding across a suite of 31 CNS targets (suite of 31 CNS targets): little binding
